Assay results as given in patent US20130190217A1, “ESTER OILS” (PANOLIN Holding AG, priority 2010, published 2013).
“And” between values parts separate entries of the source, which are not always exact repeats. Identical values can stand only once.

Experiments:
Pour point = format: physicochemical
Text: In addition, the inventive ester oils have a high flashpoint, such that use at relatively high oil sump and component temperatures is possible without risk. In addition, the pour point of the ester oils is relatively low, as a result of which the esters are also usable at low temperatures. For a liquid product, the pour point denotes the temperature at which it is still just free-flowing in the course of cooling. Thus, the inventive ester oils can be used within a broad temperature range.

Viscosity index (VI) = format: physicochemical
Flashpoint = format: physicochemical
Kinematic viscosity = format: physicochemical
[1] = NOACK vaporization (physical vaporization according to Noack, 250° C. for 1 h); format: physicochemical
Text: Trimethylolpropane esters (TMP-C8/C10) are commercially available from various suppliers and have been used for comparative purposes.

[2] = taken from safety data sheets; cited from earlier work
[3] = taken from safety data sheets; cited from earlier work; remark: listed apart in the source
Density = format: physicochemical; conditions: Table 3
[4] = High-Temperature High-Shear Viscosity (HTHS); format: physicochemical; conditions: 150° C.
Description: (§1) For the C12D13 esters and the C10D13 esters, three independently prepared samples were included in each case. For the C9D13 ester and for the D5C18 ester, one sample was analyzed in each case. The “CCS−25° C. [mPas]” and “CCS−20° C. [mPas]” columns each contain figures for the “Cold Crank Simulator” according to the standard ASTM D5293 at −25° C. and −20° C. The HTHS150° C. [mPas] column indicates what is called the “High-Temperature High-Shear Viscosity” (HTHS) at elevated temperature.

[5] = Cold Crank Simulator according to ASTM D5293; format: physicochemical
Description: as §1

[6] = UBA number 4203; cited from earlier work
[7] = taken from safety data sheets; cited from earlier work; remark: listed apart in the source
[8] = Table 3, listed as C10D13 (4th sample)
[9] = Table 3, listed as C10D13 (5th sample)
[10] = Table 3, listed as C12D13 (1st sample)
[11] = Table 3, listed as C12D13 (2nd sample)
[12] = Table 3, listed as C12D13 (3rd sample)

## CCCCCCCCC(CCCCCC)COC(=O)CCCCCCCC(=O)OCC(CCCCCC)CCCCCCCC (stereo not drawn) [Bis(2-hexyldecyl) azelate]
Pour point; Table 2, base oil
  Pour point: −64 °C
Viscosity index (VI); Table 2, base oil
  VI: 160
Flashpoint; Table 2, base oil
  Flashpoint: 278 °C
Kinematic viscosity; Table 2, 40° C.
  η40° C.: 33.0 mm^2/s
Kinematic viscosity; Table 2, 100° C.
  η100° C.: 6.60 mm^2/s

## CC(C)CCCCCCCCCCOC(=O)CCCCCCCC(=O)OCCCCCCCCCCC(C)C [C9D13, di(isotridecyl)nonanedioate]
Pour point; Table 2, base oil
  Pour point: −39 °C
Viscosity index (VI); Table 2, base oil
  VI: 124
Viscosity index (VI); Table 3
  VI: 150
Flashpoint; Table 2, base oil
  Flashpoint: 258 °C
Kinematic viscosity; Table 2, 40° C.
  η40° C.: 42.4 mm^2/s
Kinematic viscosity; Table 2, 100° C.
  η100° C.: 6.82 mm^2/s
Kinematic viscosity; Table 3, 40° C.
  η40° C.: 36.1 mm^2/s
Kinematic viscosity; Table 3, 100° C.
  η100° C.: 6.8 mm^2/s
[1]; Table 2, base oil
  NOACK: 4.0%
[1]; Table 3, 250° C. for 1 h
  NOACK: 3.5%

## CC(C)CCCCCCCCCCOC(=O)CCCCCCCCC(=O)OCCCCCCCCCCC(C)C [C10D13, di(isotridecyl)decanedioate]
Pour point; [8]
  Pour point: −52 °C
Pour point; [9]
  Pour point: −50 °C
Viscosity index (VI); [8]
  VI: 172
Viscosity index (VI); [9]
  VI: 150
Viscosity index (VI); Table 3, listed as C10D13 (6th sample)
  VI: 149
Flashpoint; Table 3
  Flashpoint: 250 °C
Kinematic viscosity; Table 3, 40° C., listed as C10D13 (4th sample)
  η40° C.: 35.5 mm^2/s
Kinematic viscosity; Table 3, 40° C., listed as C10D13 (5th sample)
  η40° C.: 36.0 mm^2/s
Kinematic viscosity; Table 3, 40° C., listed as C10D13 (6th sample)
  η40° C.: 35.7 mm^2/s
Kinematic viscosity; Table 3, 100° C., listed as C10D13 (4th sample)
  η100° C.: 7.2 mm^2/s
Kinematic viscosity; Table 3, 100° C., listed as C10D13 (5th sample)
  η100° C.: 6.8 mm^2/s
Kinematic viscosity; Table 3, 100° C., listed as C10D13 (6th sample)
  η100° C.: 6.7 mm^2/s
[1]; Table 3, 250° C. for 1 h, listed as C10D13 (4th sample)
  NOACK: 2.7%
[1]; Table 3, 250° C. for 1 h, listed as C10D13 (5th sample)
  NOACK: 4%
[1]; Table 3, 250° C. for 1 h, listed as C10D13 (6th sample)
  NOACK: 3.4%

## CC(C)CCCCCCCCCCOC(=O)CCCCCCCCCCC(=O)OCCCCCCCCCCC(C)C [C12D13, di(isotridecyl)dodecanedioate]
[2]
  Aquatic toxicity OECD 203: >1000 mg/L
Pour point; Table 2, base oil
  Pour point: −57 °C
Pour point; [10]
  Pour point: −48 °C
Pour point; [11]
  Pour point: −57 °C
Pour point; [12]
  Pour point: −51 °C
[3]
  Aquatic toxicity OECD 202: 880 mg/L
Viscosity index (VI); Table 2, base oil
  VI: 158
Viscosity index (VI); [10]
  VI: 158
Viscosity index (VI); [11]
  VI: 147
Viscosity index (VI); [12]
  VI: 156
Density; listed as C12D13 (1st sample)
  Density: 0.9051 g/mL
Density; listed as C12D13 (2nd sample)
  Density: 0.9020 g/mL
Density; listed as C12D13 (3rd sample)
  Density: 0.904 g/mL
[4]
  HTHS150° C.: 2.7 mPa·s
[5]; listed as C12D13 (1st sample)
  CCS−20° C.: 1910 mPas
  CCS−25° C.: 3210 mPas
[5]; listed as C12D13 (2nd sample)
  CCS−20° C.: 1700 mPas
[5]; listed as C12D13 (3rd sample)
  CCS−25° C.: 3230 mPas
Flashpoint; Table 2, base oil
  Flashpoint: 277 °C
Flashpoint; [10]
  Flashpoint: 276 °C
Flashpoint; [11]
  Flashpoint: 277 °C
Flashpoint; [12]
  Flashpoint: 261 °C
Kinematic viscosity; Table 2, 40° C.
  η40° C.: 42.0 mm^2/s
Kinematic viscosity; Table 2, 100° C.
  η100° C.: 7.5 mm^2/s
Kinematic viscosity; Table 3, 40° C., listed as C12D13 (1st sample)
  η40° C.: 40.47 mm^2/s
Kinematic viscosity; Table 3, 40° C., listed as C12D13 (2nd sample)
  η40° C.: 42.0 mm^2/s
Kinematic viscosity; Table 3, 40° C., listed as C12D13 (3rd sample)
  η40° C.: 41.2 mm^2/s
Kinematic viscosity; Table 3, 100° C., listed as C12D13 (1st sample)
  η100° C.: 7.573 mm^2/s
Kinematic viscosity; Table 3, 100° C., listed as C12D13 (2nd sample)
  η100° C.: 7.5 mm^2/s
Kinematic viscosity; Table 3, 100° C., listed as C12D13 (3rd sample)
  η100° C.: 7.6 mm^2/s
Kinematic viscosity; Table 3, 150° C.
  η150° C.: 3.45 mm²/s
[1]; Table 2, base oil
  NOACK: 5.7%
[1]; Table 3, 250° C. for 1 h, listed as C12D13 (1st sample)
  NOACK: 2.4%
[1]; Table 3, 250° C. for 1 h, listed as C12D13 (2nd sample)
  NOACK: 4.3%
[1]; Table 3, 250° C. for 1 h, listed as C12D13 (3rd sample)
  NOACK: 2.9%
[6]
  water endangerment class (WGK): WGK 1

## CC(C)CCCCCCCCCCCCCCC(=O)OCC(C)(C)COC(=O)CCCCCCCCCCCCCCC(C)C [D5C18, neopentyl glycol di(isostearate)]
[2]
  Aquatic toxicity OECD 203: >10 000 mg/l
Pour point; Table 3
  Pour point: −44 °C
[3]
  Aquatic toxicity OECD 202: >1000 mg/L
Viscosity index (VI); Table 3
  VI: 146
[7]
  Aquatic toxicity OECD 201: >1000 mg/L
Flashpoint; Table 3
  Flashpoint: 280 °C
Kinematic viscosity; Table 3, 40° C.
  η40° C.: 46.0 mm^2/s
Kinematic viscosity; Table 3, 100° C.
  η100° C.: 8.0 mm^2/s
[1]; Table 3, 250° C. for 1 h
  NOACK: 2.0%

## CC(C)CCCCCCCCCCOC(=O)CCCCC(=O)OCCCCCCCCCCC(C)C [DITA, diisotridecyl adipate, reference compound]
Pour point; Table 2, base oil
  Pour point: −51 °C
Pour point; Table 3
  Pour point: −60 °C
[3]
  Aquatic toxicity OECD 202: >100 mg/L
Viscosity index (VI); Table 2, base oil
  VI: 139
Viscosity index (VI); Table 3
  VI: 139
Density
  Density: 0.91 g/mL
[7]
  Aquatic toxicity OECD 201: >1000 mg/L
[5]
  CCS−20° C.: 1455 mPas
  CCS−25° C.: 2646 mPas
Flashpoint; Table 2, base oil
  Flashpoint: 227 °C
Flashpoint; Table 3
  Flashpoint: 244 °C
Kinematic viscosity; Table 2, 40° C.
  η40° C.: 27.0 mm^2/s
Kinematic viscosity; Table 2, 100° C.
  η100° C.: 5.4 mm^2/s
Kinematic viscosity; Table 3, 40° C.
  η40° C.: 25 mm^2/s
Kinematic viscosity; Table 3, 100° C.
  η100° C.: 5 mm^2/s
[1]; Table 2, base oil
  NOACK: 8-10%
[1]; Table 3, 250° C. for 1 h
  NOACK: 10.0%

## CC(C)CCCCCCCOC(=O)CCCCCCCCCCC(=O)OCCCCCCCC(C)C [Di(isodecyl) dodecanedioate]
Viscosity index (VI); Table 2, base oil
  VI: 161 and 162
Flashpoint; Table 2, base oil
  Flashpoint: 266 °C
Kinematic viscosity; Table 2, 40° C.
  η40° C.: 25.7 mm^2/s and 23.4 mm^2/s
Kinematic viscosity; Table 2, 100° C.
  η100° C.: 5.58 mm^2/s and 5.2 mm^2/s
[1]; Table 2, base oil
  NOACK: 3.5% and 4.3%

## CC(C)CCCCCCCOC(=O)CCCCC(=O)OCCCCCCCC(C)C [Diisodecyl adipate]
Pour point; Table 2, base oil
  Pour point: −60 °C
Viscosity index (VI); Table 2, base oil
  VI: 148
Flashpoint; Table 2, base oil
  Flashpoint: 235 °C
Kinematic viscosity; Table 2, 40° C.
  η40° C.: 14.0 mm^2/s
Kinematic viscosity; Table 2, 100° C.
  η100° C.: 3.10 mm^2/s
[1]; Table 2, base oil
  NOACK: 15.5%

## CC(C)CCCCCCCOC(=O)CCCCCCCC(=O)OCCCCCCCC(C)C [Diisodecyl azelate]
Pour point; Table 2, base oil
  Pour point: −65 °C
Viscosity index (VI); Table 2, base oil
  VI: 151
Flashpoint; Table 2, base oil
  Flashpoint: 230 °C
Kinematic viscosity; Table 2, 40° C.
  η40° C.: 18.1 mm^2/s
Kinematic viscosity; Table 2, 100° C.
  η100° C.: 4.3 mm^2/s
[1]; Table 2, base oil
  NOACK: 9.8%

## CCCCCCCCCCCCCCOC(=O)CCCCC(=O)OCCCCCCCCCCCCCC [Ditetradecyl adipate]
Viscosity index (VI); Table 2, base oil
  VI: 75
Kinematic viscosity; Table 2, 40° C.
  η40° C.: 34.3 mm^2/s
Kinematic viscosity; Table 2, 100° C.
  η100° C.: 5.1 mm^2/s

## CCCCCCCCCCCCCOC(=O)CCCCCCCC(=O)OCCCCCCCCCCCCC [Ditridecyl azelate]
Pour point; Table 2, base oil
  Pour point: −55 °C
Viscosity index (VI); Table 2, base oil
  VI: 145
Flashpoint; Table 2, base oil
  Flashpoint: 243 °C
Kinematic viscosity; Table 2, 40° C.
  η40° C.: 33.8 mm^2/s
Kinematic viscosity; Table 2, 100° C.
  η100° C.: 6.4 mm^2/s

## Di(C9) dodecanedioate
Viscosity index (VI); Table 2, base oil
  VI: 189
Flashpoint; Table 2, base oil
  Flashpoint: 245 °C
Kinematic viscosity; Table 2, 40° C.
  η40° C.: 24.8 mm^2/s
Kinematic viscosity; Table 2, 100° C.
  η100° C.: 5.6 mm^2/s
[1]; Table 2, base oil
  NOACK: 5.0%

## Di(iso-C9) dodecanedioate
Pour point; Table 2, base oil
  Pour point: −25 °C
Viscosity index (VI); Table 2, base oil
  VI: 184
Kinematic viscosity; Table 2, 40° C.
  η40° C.: 23.2 mm^2/s
Kinematic viscosity; Table 2, 100° C.
  η100° C.: 5.28 mm^2/s
[1]; Table 2, base oil
  NOACK: 6.0%

## Dodecanediol dipelargonate
Pour point; Table 2, base oil
  Pour point: −38 °C
Viscosity index (VI); Table 2, base oil
  VI: 182
Kinematic viscosity; Table 2, 40° C.
  η40° C.: 25.25 mm^2/s
Kinematic viscosity; Table 2, 100° C.
  η100° C.: 5.58 mm^2/s
[1]; Table 2, base oil
  NOACK: 7.4%

## trimethylolpropane ester [TMP-C8/10, reference compound]
[2]
  Aquatic toxicity OECD 203: >10 000 mg/l
Pour point; Table 3
  Pour point: −30 °C
[3]
  Aquatic toxicity OECD 202: 600 mg/L
Viscosity index (VI); Table 3
  VI: 140
Density
  Density: 0.94 g/mL
[7]
  Aquatic toxicity OECD 201: 140 mg/L
[5]
  CCS−20° C.: 221 mPas
  CCS−25° C.: 853 mPas
Flashpoint; Table 3
  Flashpoint: 235 °C
Kinematic viscosity; Table 3, 40° C.
  η40° C.: 22 mm^2/s
Kinematic viscosity; Table 3, 100° C.
  η100° C.: 4.5 mm^2/s
[1]; Table 3, 250° C. for 1 h
  NOACK: 3.6%
